From patent publication US7834023B2 (Portola Pharmaceuticals, Inc., priority 2006, dated 2010)

Biological target: T1, P2Y12 receptor (Homo sapiens, UniProt Q9H244)
T1 construct: endogenous in cells; host or cells: human platelets (outdated from blood banks or fresh), apyrase-washed, whole
Experiment: platelet ADP receptor binding assay (ARB): inhibition of [3H]2-MeS-ADP binding to platelets
Conditions: [3H]2-MeS-ADP binding to apyrase-washed human platelets
Description: 1. The Ability of Candidate Molecules to Inhibit the Binding of [^3H]2-MeS-ADP to the […] Receptor on Platelets was Determined Using a Radioligand Binding Assay.
Utilizing this assay the potency of inhibition of such compounds with respect to [^3H]2-MeS-ADP binding to whole platelets is determined. Under the conditions described in II (3) below, the binding of [^3H]2-MeS-ADP is solely due to the interaction of this ligand with the P2Y12 receptor, in that all the specific binding measured in this assay is competable with a P2Y12 antagonist (i.e., the specific binding is reduced to background levels by competition with an excess of P2Y12 antagonist, with no competition of binding when a P2Y1 antagonist is pre-incubated with the platelet preparation). [^3H]2-MeS-ADP binding experiments are routinely performed with outdated human platelets collected by standard procedures at hospital blood banks. Apyrase-washed outdated platelets are prepared as follows (all steps at room temperature, if not indicated otherwise):
Outdated platelet suspensions are diluted with 1 volume of CGS and platelets pelleted by centrifugation at 1900×g for 45 minutes. Platelet pellets are resuspended at 3-6×10^9 platelets/ml in CGS containing 1 U/ml apyrase (grade V, Sigma, St. Louis, Mo.) and incubated for 15 minutes at 37° C. After centrifugation at 730×g for 20 minutes, pellets are resuspended in Hepes-Tyrode's buffer containing 0.1% BSA (Sigma, St. Louis, Mo.) at a concentration of 6.66×10^8 platelets/ml. Binding experiments are performed after >45 minutes resting of the platelets.
Alternatively, binding experiments are performed with fresh human platelets prepared as described in section I (Inhibition of ADP-Mediated Platelet Aggregation in vitro), except that platelets are resuspended in Hepes-Tyrode's buffer containing 0.1% BSA (Sigma, St. Louis, Mo.) at a concentration of 6.66×10^8 platelets/mil. Very similar results are obtained with fresh and outdated platelets.
A platelet ADP receptor binding assay (ARB) using the tritiated potent agonist ligand [^3H]2-MeS-ADP (Jantzen, H. M. et al. (1999) Thromb. Hemost. 81:111-117) has been adapted to the 96-well microtiter format. In an assay volume of 0.2 ml Hepes-Tyrode's buffer with 0.1% BSA and 0.6% DMSO, 1×10^8 apyrase-washed platelets are preincubated in 96-well flat bottom microtiter plates for 5 minutes with serial dilutions of test compounds before addition of 1 nM [^3H]2-MeS-ADP ([^3H]2-methylthioadenosine-5′-diphosphate, ammonium salt; specific activity 20-50 Ci/mmole, obtained by custom synthesis from Amersham Life Science, Inc., Arlington Heights, Ill., or NEN Life Science Products, Boston, Mass.). Total binding is determined in the absence of test compounds. Samples for nonspecific binding may contain 10 μM unlabelled 2-MeS-ADP (RBI, Natick, Mass.). After incubation for 15 minutes at room temperature, unbound radioligand is separated by rapid filtration and two washes with cold (4-8° C.) Binding Wash Buffer (10 mM Hepes pH 7.4, 138 mM NaCl) using a 96-well cell harvester (Minidisc 96, Skatron Instruments, Sterling, Va.) and 8×12 GF/C glassfiber filtermats (Printed Filtermat A, for 1450 Microbeta, Wallac Inc., Gaithersburg, Md.). The platelet-bound radioactivity on the filtermats is determined in a scintillation counter (Microbeta 1450, Wallac Inc., Gaithersburg, Md.). Specific binding is determined by subtraction of non-specific binding from total binding, and specific binding in the presence of test compounds is expressed as % of specific binding in the absence of test compound dilutions. IC50s were derived by non-linear regression analysis.

T1 sequence (Q9H244 whole entry): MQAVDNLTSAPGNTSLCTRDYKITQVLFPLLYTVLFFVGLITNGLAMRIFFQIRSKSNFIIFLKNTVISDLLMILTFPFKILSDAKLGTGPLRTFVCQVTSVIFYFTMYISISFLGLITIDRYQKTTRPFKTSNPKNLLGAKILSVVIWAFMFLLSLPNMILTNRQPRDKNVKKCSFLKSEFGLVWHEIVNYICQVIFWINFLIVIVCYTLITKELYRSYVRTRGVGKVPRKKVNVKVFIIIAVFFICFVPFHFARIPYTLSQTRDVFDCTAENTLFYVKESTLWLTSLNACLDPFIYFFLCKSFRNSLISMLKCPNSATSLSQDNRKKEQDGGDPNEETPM

Row | Compound | IC50
1 | CNc1cc2[nH]c(=O)n(-c3ccc(C(=O)N(CCC(=O)O)Cc4ccc(Cl)s4)cc3)c(=O)c2cc1F [Compound 40, 3-(N-((5-chlorothiophen-2-yl)methyl)-4-(6-fluoro-7-(methylamino)-2,4-dioxo-1,2-dihydroquinazolin-3(4H)-yl)benzamido)propanoic acid] | > 500 nM
2 | CNc1cc2[nH]c(=O)n(-c3ccc(C(=O)NC(C(=O)O)c4ccc(Cl)s4)c(OC)c3)c(=O)c2cc1F (stereo not drawn) [Compound 42, 2-(5-chlorothiophen-2-yl)-2-(4-(6-fluoro-7-(methylamino)-2,4-dioxo-1,2-dihydroquinazolin-3(4H)-yl)-2-methoxybenzamido)acetic acid] | > 500 nM
3 | CNc1cc2[nH]c(=O)n(-c3ccc(C(=O)NC(C(=O)O)c4ccc(Cl)s4)c(Cl)c3)c(=O)c2cc1F (stereo not drawn) [Compound 43, 2-(2-chloro-4-(6-fluoro-7-(methylamino)-2,4-dioxo-1,2-dihydroquinazolin-3(4H)-yl)benzamido)-2-(5-chlorothiophen-2-yl)acetic acid] | 50 to 500 nM
4 | CNc1cc2c(=O)n(-c3ccc(C(=O)NC(C(=O)O)c4ccc(Cl)s4)cc3)c(=O)[nH]c2cc1F (stereo not drawn) [Compound 48, 2-(5-chlorothiophen-2-yl)-2-(4-(7-fluoro-6-(methylamino)-2,4-dioxo-1,2-dihydroquinazolin-3(4H)-yl)benzamido)acetic acid] | 50 to 500 nM
5 | CNc1cc2c(=O)n(-c3ccc(C(=O)NC(c4nnn[nH]4)c4ccc(Cl)s4)cc3)c(=O)[nH]c2cc1F (stereo not drawn) [Compound 49, N-((5-chlorothiophen-2-yl)(1H-tetrazol-5-yl)methyl)-4-(7-fluoro-6-(methylamino)-2,4-dioxo-1,2-dihydroquinazolin-3(4H)-yl)benzamide] | > 500 nM
6 | CNc1cc2[nH]c(=O)n(-c3ccc(C(=O)NC(C(=O)O)c4ccc(Cl)s4)cc3OC)c(=O)c2cc1F (stereo not drawn) [Compound 51, 2-(5-chlorothiophen-2-yl)-2-(4-(6-fluoro-7-(methylamino)-2,4-dioxo-1,2-dihydroquinazolin-3(4H)-yl)-3-methoxybenzamido)acetic acid] | > 500 nM
7 | CNc1cc2[nH]c(=O)n(-c3ccc(C(=O)NC(c4nnn[nH]4)c4ccc(Cl)s4)cc3OC)c(=O)c2cc1F (stereo not drawn) [Compound 52, N-((5-chlorothiophen-2-yl)(1H-tetrazol-5-yl)methyl)-4-(6-fluoro-7-(methylamino)-2,4-dioxo-1,2-dihydroquinazolin-3(4H)-yl)-3-methoxybenzamide] | 50 to 500 nM
8 | CNc1cc2c(cc1F)C(=O)N(c1ccc(C(=O)NC(Cc3ccc(Cl)s3)C(=O)O)cc1)CO2 (stereo not drawn) [Compound 57, 3-(5-chlorothiophen-2-yl)-2-(4-(6-fluoro-7-(methylamino)-4-oxo-2H-benzo[e][1,3]oxazin-3(4H)-yl)benzamido)propanoic acid] | 50 to 500 nM
9 | CNc1cc2c(cc1F)C(=O)N(c1ccc(C(=O)NC(C(=O)O)c3ccccc3)cc1)CO2 (stereo not drawn) [Compound 58, 2-(4-(6-fluoro-7-(methylamino)-4-oxo-2H-benzo[e][1,3]oxazin-3(4H)-yl)benzamido)-2-phenylacetic acid] | 50 to 500 nM
10 | CNc1cc2c(cc1F)C(=O)N(c1ccc(C(=O)NC(Cc3ccccc3)C(=O)O)cc1)CO2 (stereo not drawn) [Compound 59, 2-(4-(6-fluoro-7-(methylamino)-4-oxo-2H-benzo[e][1,3]oxazin-3(4H)-yl)benzamido)-3-phenylpropanoic acid] | > 500 nM
11 | CNc1cc2c(cc1F)C(=O)N(c1ccc(C(=O)N[C@@H](Cc3ccccc3)C(=O)O)cc1)CO2 [Compound 60, (S)-2-(4-(6-fluoro-7-(methylamino)-4-oxo-2H-benzo[e][1,3]oxazin-3(4H)-yl)benzamido)-3-phenylpropanoic acid] | 50 to 500 nM
12 | CNc1cc2c(cc1F)C(=O)N(c1ccc(C(=O)NC(C(=O)O)c3cccs3)cc1)CO2 (stereo not drawn) [Compound 63, 2-(4-(6-fluoro-7-(methylamino)-4-oxo-2H-benzo[e][1,3]oxazin-3(4H)-yl)benzamido)-2-(thiophen-2-yl)acetic acid] | > 500 nM
